Measured values taken from patent US9756858B2, “Insecticides” (Syngenta Participations AG, priority 2011, dated 2017).

Assays:
Type in all cases: in vivo
Aphis craccivora = experiment: Activity against Aphis craccivora (mixed population, contact/feeding), comparison with state of the art; details: for Death rate (%) after 5 days: pea seedlings, spray
Method: Comparison of the Insecticidal Activity of Compounds According to the Invention with the Structurally Closest Compound from the State of the Art (Compound No. 39 Described on Page 66 of WO2009/149858): Example B8: Activity Against Aphis craccivora (mixed population, contact/feeding) Pea seedlings, infested with an aphid population of mixed ages, were treated with diluted test solutions in a spray chamber. […]

[1] = tested on: Tetranychus urticae (two-spotted spider mite); experiment: Activity against Tetranychus urticae (mixed population, feeding/residual contact, preventive); details: foliar, 192 h, bean leaf discs, 8 days
Description: Example B7: Activity Against Tetranychus urticae (Two-Spotted Spider Mite) (mixed population, feeding/residual contact activity, preventive) Bean leaf discs on agar in 24-well microtiter plates are sprayed with test solutions. After drying, the leaf discs are infested with mite populations of mixed ages. 8 days later, discs are checked for egg mortality, larval mortality, and adult mortality.

[2] = tested on: Plutella xylostella (diamond back moth); experiment: Plutella xylostella (larvicide, feeding/residual contact, preventive); details: 200 ppm; artificial diet, L2 larvae, 5 days incubation
Method: Example B3: Plutella xylostella (Diamond Back Moth) (larvicide, feeding/residual contact activity, preventive) 24-well microtiter plate (MTP) with artificial diet was treated with test solutions by pipetting. After drying, the MTP's were infested with larvae (L2) (10-15 per well). After an incubation period of 5 days, samples were checked for larval mortality, antifeedant and growth regulation.

[3] = tested on: Myzus persicae (green peach aphid); experiment: Activity against Myzus persicae (mixed population, feeding/residual contact, preventive); details: foliar, 144 h, sunflower leaf discs, 6 days incubation
Method: Example B4: Activity Against Myzus Persicae (Green Peach Aphid) (mixed population, feeding/residual contact activity, preventive) Sunflower leaf discs were placed on agar in a 24-well microtiter plate and sprayed with test solutions. After drying, the leaf discs were infested with an aphid population of mixed ages. After an incubation period of 6 days, samples were checked for mortality and special effects (e.g. phytotoxicity).

[4] = tested on: Myzus persicae (green peach aphid); experiment: Activity against Myzus persicae (mixed population, systemic/feeding, curative); details: 144 h, roots of pea seedlings in test solution, 6 days
Description: Example B5: Activity Against Myzus persicae (Green Peach Aphid) (mixed population, systemic/feeding activity, curative) Roots of pea seedlings, infested with an aphid population of mixed ages, were placed directly in the test solutions. 6 days after introduction, samples were checked for mortality and special effects on the plant.

[5] = tested on: Spodoptera littoralis (Egyptian cotton leafworm); experiment: Activity against Spodoptera littoralis (larvicide, feeding/residual contact, preventive); details: 200 ppm; cotton leaf discs, L1 larvae, 3 days after treatment
Description: Example B1: Activity Against Spodoptera littoralis (Egyptian Cotton Leafworm) (larvicide, feeding/residual contact activity, preventive) Cotton leaf discs were placed on agar in a 24-well microtiter plate and sprayed with test solutions. After drying, the leaf discs were infested with 5 L1 larvae. The samples were checked for mortality, repellent effect, feeding behaviour, and growth regulation 3 days after treatment.

SMILES	pest or weed control at 200 ppm [3]	further results
Cc1nc(-c2cccnc2)sc1C(=O)NCC(F)(F)F [Comp. 39, reference compound]		Death rate (%) after 5 days (Aphis craccivora; 3 ppm): 35%; Death rate (%) after 5 days (Aphis craccivora; 12.5 ppm): 85%; Death rate (%) after 5 days (Aphis craccivora; 25 ppm): 99%; Death rate (%) after 5 days (Aphis craccivora; 50 ppm): 99%
Clc1csc(C2C=CC=NC2c2sc(-c3cccnc3)nc2Cl)n1 (centres unmarked) [Compound 1.001]		pest or weed control at 200 ppm [1]: > 80%; activity [2]: over 80%
O=C(NCC(F)(F)F)c1sc(-c2cccnc2)nc1Cl [Compound 1.005]	> 80%	Death rate (%) after 5 days (Aphis craccivora; 3 ppm): 0%; Death rate (%) after 5 days (Aphis craccivora; 12.5 ppm): 0%; Death rate (%) after 5 days (Aphis craccivora; 25 ppm): 30%; Death rate (%) after 5 days (Aphis craccivora; 50 ppm): 90%; insecticidal action on Aphis craccivora compared with the compound from the state of the art (Aphis craccivora; comparison with Comp. 39, especially at 25, 12.5 and 3 ppm): substantially better insecticidal action
O=C(NC1CSC1)c1sc(-c2cccnc2)nc1Cl [Compound 1.007]	> 80%	pest or weed control at 24 ppm [4]: > 80%
Clc1cccc(-c2sc(-c3cccnc3)nc2Cl)n1 [Compound 1.011]	> 80%	
CS(=O)(=O)c1ccc(CNC(=O)c2sc(-c3cccnc3)nc2Cl)cc1 [Compound 1.021]	> 80%	
O=C(NCC1CCCO1)c1sc(-c2cccnc2)nc1Cl (centres unmarked) [Compound 1.026]	> 80%	
O=C(NCc1ccc2c(c1)OCCO2)c1sc(-c2cccnc2)nc1Cl [Compound 1.038]	> 80%	
CC(=O)NCCNC(=O)c1sc(-c2cccnc2)nc1Cl [Compound 1.039]	> 80%	
O=C(Nc1cccc2ncccc12)c1sc(-c2cccnc2)nc1Cl [Compound 1.053]	> 80%	
Cc1cc(NC(=O)c2sc(-c3cccnc3)nc2Cl)n(C)n1 [Compound 1.069]	> 80%	
Cc1cc(O)nc(NC(=O)c2sc(-c3cccnc3)nc2Cl)n1 [Compound 1.072]	> 80%	
O=C(Nc1ccc(Oc2ccccc2)nc1)c1sc(-c2cccnc2)nc1Cl [Compound 1.079]	> 80%	
O=C(NC1CS(=O)(=O)C1)c1sc(-c2cccnc2)nc1Cl [Compound 1.085]	> 80%	
CSCC(C)(C)NC(=O)c1sc(-c2cccnc2)nc1Cl [Compound 1.086]	> 80%	pest or weed control at 24 ppm [4]: > 80%
O=C(NC1CCSC1)c1sc(-c2cccnc2)nc1Cl (centres unmarked) [Compound 1.088]	> 80%	pest or weed control at 24 ppm [4]: > 80%
O=C(NC1C[S+]([O-])C1)c1sc(-c2cccnc2)nc1Cl (centres unmarked) [Compound 1.089]	> 80%	
O=C(NC1C[S+]([O-])C1)c1sc(-c2cccnc2)nc1Cl (centres unmarked) [Compound 1.090]		pest or weed control at 24 ppm [4]: > 80%
CCN1OCC(NC(=O)c2sc(-c3cccnc3)nc2Cl)C1=O (centres unmarked) [Compound 1.093]		pest or weed control at 24 ppm [4]: > 80%
O=C(NCCC1CS(=O)(=O)C1)c1sc(-c2cccnc2)nc1Cl [Compound 1.094]	> 80%	
O=C(NC1CON(CC(F)(F)F)C1=O)c1sc(-c2cccnc2)nc1Cl (centres unmarked) [Compound 1.095]	> 80%	pest or weed control at 24 ppm [4]: > 80%
O=C(c1sc(-c2cccnc2)nc1Cl)N1CCC[C@H]1COc1c(Cl)cc(Cl)cc1Cl [Compound 1.096]		pest or weed control at 200 ppm [1]: > 80%

SMILES	pest or weed control at 200 ppm [3]	further results
C[C@@H](NC(=O)c1sc(-c2cccnc2)nc1Cl)C(F)(F)F [Compound 1.100]	> 80%	
O=C(NC1(C2CC2)CC1)c1sc(-c2cccnc2)nc1Cl [Compound 1.119]	> 80%	
CON1CCC(NC(=O)c2sc(-c3cccnc3)nc2Cl)CC1 [Compound 1.120]	> 80%	pest or weed control at 24 ppm [4]: > 80%
CN(Cc1ccc(Cl)nc1)C(=O)c1sc(-c2cccnc2)nc1Cl [Compound 1.124]		pest or weed control at 200 ppm [1]: > 80%
COCC#CC(C)(C)NC(=O)c1sc(-c2cccnc2)nc1Cl [Compound 1.130]	> 80%	
CC(C)(NC(=O)c1sc(-c2cccnc2)nc1Cl)C(=O)c1ccc(Cl)cc1 [Compound 1.131]		pest or weed control at 200 ppm [1]: > 80%
CC(C)(NC(=O)c1sc(-c2cccnc2)nc1Cl)C(=O)c1cccc(Br)c1 [Compound 1.132]		pest or weed control at 200 ppm [1]: > 80%
COC(=O)c1ccc(NC(=O)c2sc(-c3cccnc3)nc2Cl)nc1 [Compound 1.138]		pest or weed control at 200 ppm [1]: > 80%
CCCCNC(=O)c1sc(-c2cccnc2)nc1Cl [Compound 1.142]	> 80%	
CC1(NC(=O)c2sc(-c3cccnc3)nc2Cl)CSC1 [Compound 1.143]		pest or weed control at 24 ppm [4]: > 80%
O=C(NC1CCC1)c1sc(-c2cccnc2)nc1Cl [Compound 1.144]	> 80%	
C[S+]([O-])CCNC(=O)c1sc(-c2cccnc2)nc1Cl (centres unmarked) [Compound 1.145]	> 80%	pest or weed control at 24 ppm [4]: > 80%
CSCCNC(=O)c1sc(-c2cccnc2)nc1Cl [Compound 1.146]	> 80%	pest or weed control at 24 ppm [4]: > 80%
O=C(NCC1CCS1)c1sc(-c2cccnc2)nc1Cl (centres unmarked) [Compound 1.147]	> 80%	pest or weed control at 24 ppm [4]: > 80%
O=C(NCCC1CSC1)c1sc(-c2cccnc2)nc1Cl [Compound 1.148]	> 80%	pest or weed control at 24 ppm [4]: > 80%
CC(C)(C)NC(=O)c1sc(-c2cccnc2)nc1Cl [Compound 1.149]	> 80%	
COCC(C)(C#N)NC(=O)c1sc(-c2cccnc2)nc1Cl (centres unmarked) [Compound 1.150]	> 80%	
C#CC(C)(C)NC(=O)c1sc(-c2cccnc2)nc1Cl [Compound 1.152]	> 80%	
CC#CC(C)(C)NC(=O)c1sc(-c2cccnc2)nc1Cl [Compound 1.153]	> 80%	
COC(c1ccc(Cl)cc1Cl)C(C)NC(=O)c1sc(-c2cccnc2)nc1Cl (centres unmarked) [Compound 1.156]		pest or weed control at 200 ppm [1]: > 80%; activity [5]: over 80%
COc1cc(-c2sc(-c3cccnc3)nc2Cl)nc(OC)n1 [Compound 1.160]		pest or weed control at 200 ppm [1]: > 80%
